{
  "source": "patent US10005767B2",
  "about": "“Compositions and methods for inhibition of the JAK pathway” (Rigel Pharmaceuticals, Inc., priority 2009, dated 2018)",
  "note": "Counter-ions that a name gives are not always drawn.",
  "data": [
    {"tested_on": "human primary T-cells, IL-2 stimulated proliferation (JAK-1 and JAK-3 dependent; reported as JAK3 activity)", "assay": "Human primary T-cell proliferation stimulated by IL-2 (Example 3)", "format": "cell-based", "details": "Homo sapiens, T-cell, tested under conditions described in Example 3 (IL-2 stimulated human primary T-cell proliferation); read-out: ability to inhibit JAK3 activity, IC50 range (Table V)", "method_in_brief": "(§1)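 Peripheral-blood human T-cells pre-activated via TCR/CD28, IL-2-starved overnight, then cultured 72 h at 37 °C with compound in Yssel's medium containing IL-2 (80 U/mL in cell suspension). Proliferation read as viable-cell ATP by CellTiter-Glo luminescence; reduction versus control taken as JAK pathway inhibition.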", "units": {"IC50": "nM"}, "values": [
      {"smiles": "COc1cc(Nc2ncc(C)c(Nc3ccc4oc(=O)[nH]c4c3)n2)cc2ccccc12", "note": "[IV-55, 5-[2-(4-Methoxy-naphthalen-2-ylamino)-5-methyl-pyrimidin-4-ylamino]-3H-benzooxazol-2-one]", "IC50": "< 500"},
      {"smiles": "COc1cc(Nc2ncc(C)c(Nc3ccc4oc(=O)[nH]c4c3)n2)ccc1C(=O)N1CCOCC1", "note": "[Compound I-269, 5-(2-(3-methoxy-4-(morpholine-4-carbonyl)phenylamino)-5-methylpyrimidin-4-ylamino)benzo[d]oxazol-2(3H)-one]", "IC50": "< 500"},
      {"smiles": "Cc1cnc(Nc2ccc(N3CC[C@@H](N(C)C)C3)nc2)nc1Nc1ccc2oc(=O)[nH]c2c1", "note": "[II-89, (R)-5-(2-(6-(3-(dimethylamino)pyrrolidin-1-yl)pyridin-3-ylamino)-5-methylpyrimidin-4-ylamino)benzo[d]oxazol-2(3H)-one]", "IC50": "< 500"},
      {"smiles": "Cc1cnc(Nc2ccc(Cl)c(OC(F)(F)F)c2)nc1Nc1ccc2oc(=O)[nH]c2c1", "note": "[Compound I-180, 5-[2-(4-Chloro-3-trifluoromethoxy-phenylamino)-5-methyl-pyrimidin-4-ylamino]-3H-benzooxazol-2-one]", "IC50": "< 500"},
      {"smiles": "Cc1cnc(Nc2ccc3c(c2)N(C)C(=O)CCC3)nc1Nc1ccc2oc(=O)[nH]c2c1", "note": "[IV-30, 5-(5-methyl-2-(1-methyl-2-oxo-2,3,4,5-tetrahydro-1H-benzo[b]azepin-8-ylamino)pyrimidin-4-ylamino)benzo[d]oxazol-2(3H)-one]", "IC50": "< 500"},
      {"smiles": "Cc1cnc(Nc2ccc(N3CCN(C)CC3)nn2)nc1Nc1ccc2oc(=O)[nH]c2c1", "note": "[IV-3, N4-(benzo[d]oxazol-2(3H)-on-5-yl)-N2-(6-(4-methylpiperazin-1-yl)pyridazin-3-yl)-5-methylpyrimidine-2,4-diamine]", "IC50": "> 10000"},
      {"smiles": "COc1ccc(Nc2ncc(C)c(Nc3ccc4oc(=O)[nH]c4c3)n2)cc1C(=O)N1CCCC1", "note": "[Compound I-261, 5-(2-(4-methoxy-3-(pyrrolidine-1-carbonyl)phenylamino)-5-methylpyrimidin-4-ylamino)benzo[d]oxazol-2(3H)-one]", "IC50": "< 500"},
      {"smiles": "CC(=O)c1cc(Nc2ncc(C)c(Nc3ccc4oc(=O)[nH]c4c3)n2)cc(C(F)(F)F)c1", "note": "[Compound I-445, 5-(2-(3-acetyl-5-(trifluoromethyl)phenylamino)-5-methylpyrimidin-4-ylamino)benzo[d]oxazol-2(3H)-one]", "IC50": "< 500"},
      {"smiles": "CN1CCN(c2ccc(Nc3ncc(C(F)(F)F)c(Nc4ccc5oc(=O)[nH]c5c4)n3)cn2)CC1", "note": "[II-85, 5-(2-(6-(4-methylpiperazin-1-yl)pyridin-3-ylamino)-5-(trifluoromethyl)pyrimidin-4-ylamino)benzo[d]oxazol-2(3H)-one]", "IC50": "< 500"},
      {"smiles": "Cc1cnc(Nc2ccc(N3CCC4(CCN(C)C4)C3)nc2)nc1Nc1ccc2oc(=O)[nH]c2c1", "note": "(centres unmarked) [II-133, 5-methyl-N2-[2-(7-methyl-2,7-diazaspiro[4.4]nonan-2-yl)pyridin-5-yl]-N4-(2-oxo-2,3-dihydro-1,3-benzoxazol-5-yl)-2,4-pyrimidinediamine]", "IC50": "< 500"},
      {"smiles": "Cc1cnc(Nc2ccc3cn[nH]c3c2)nc1Nc1ccc2oc(=O)[nH]c2c1", "note": "[IV-4, N4-(benzo[d]oxazol-2(3H)-on-5-yl)-N2-(1H-indazol-6-yl)-5-methylpyrimidine-2,4-diamine]", "IC50": "< 500"},
      {"smiles": "CCN(CC)C(C)c1cccc(Nc2ncc(C)c(Nc3ccc4oc(=O)[nH]c4c3)n2)c1", "note": "(centres unmarked) [Compound I-216, 5-(2-(3-(1-(diethylamino)ethyl)phenylamino)-5-methylpyrimidin-4-ylamino)benzo[d]oxazol-2(3H)-one]", "IC50": "< 500"},
      {"smiles": "Cc1cnc(Nc2ccc(OC(F)(F)F)c(N3CCOCC3)c2)nc1Nc1ccc2oc(=O)[nH]c2c1", "note": "[Compound I-124, N4-(benzo[d]oxazolin-2(3H)-one-5-yl)-5-methyl-N2-[3-(morpholin-4-yl)-4-trifluoromethoxyphenyl]-2,4-pyrimidinediamine]", "IC50": "< 500"},
      {"smiles": "Cc1cnc(Nc2ccc3c(c2)CCC(N2CCCC2)CC3)nc1Nc1ccc2oc(=O)[nH]c2c1", "note": "(centres unmarked) [IV-1, N4-(benzo[d]oxazol-2(3H)-on-5-yl)-N2-(7-(pyrrolidin-1-yl)-6,7,8,9-tetrahydro-5H-benzo[7]annulen-2-yl)-5-methylpyrimidine-2,4-diamine]", "IC50": "< 500"},
      {"smiles": "Cc1cnc(Nc2ccc(-c3ccc(Cl)nc3)cc2)nc1Nc1ccc2oc(=O)[nH]c2c1", "note": "[Compound I-509, 5-(2-(4-(6-chloropyridin-3-yl)phenylamino)-5-methylpyrimidin-4-ylamino)benzo[d]oxazol-2(3H)-one trifluoroacetate salt]", "IC50": "> 10000"},
      {"smiles": "Cc1cnc(Nc2ccc3c(c2)C(NC(C)C)CCCC3)nc1Nc1ccc2oc(=O)[nH]c2c1", "note": "(centres unmarked) [IV-12, 5-[2-(9-Isopropylamino-6,7,8,9-tetrahydro-5H-benzocyclohepten-2-ylamino)-5-methyl-pyrimidin-4-ylamino]-3H-benzooxazol-2-one]", "IC50": "< 500"},
      {"smiles": "Cc1cnc(Nc2ccc3c(c2)CCCN(C)C3=O)nc1Nc1ccc2oc(=O)[nH]c2c1", "note": "[IV-21, 5-(5-methyl-2-(2-methyl-1-oxo-2,3,4,5-tetrahydro-1H-benzo[c]azepin-7-ylamino)pyrimidin-4-ylamino)benzo[d]oxazol-2(3H)-one]", "IC50": "< 500"},
      {"smiles": "Cc1cc(Nc2ncc(C)c(Nc3ccc4oc(=O)[nH]c4c3)n2)ccc1C(=O)NC1CCC1", "note": "[Compound I-190, N-Cyclobutyl-2-methyl-4-[5-methyl-4-(2-oxo-2,3-dihydro-benzooxazol-5-ylamino)-pyrimidin-2-ylamino]-benzamide]", "IC50": "< 500"},
      {"smiles": "Cc1ccc(Nc2ncc(C)c(Nc3ccc4oc(=O)[nH]c4c3)n2)cc1CF", "note": "[Compound I-439, 5-(2-(3-(fluoromethyl)-4-methylphenylamino)-5-methylpyrimidin-4-ylamino)benzo[d]oxazol-2(3H)-one]", "IC50": "< 500"},
      {"smiles": "Cc1cnc(Nc2ccc3cnccc3c2)nc1Nc1ccc2oc(=O)[nH]c2c1", "note": "[IV-53, 5-[2-(Isoquinolin-6-ylamino)-5-methyl-pyrimidin-4-ylamino]-3H-benzooxazol-2-one]", "IC50": "5000 to 10000"},
      {"smiles": "Cc1cnc(Nc2cc(Br)cc(C(F)(F)F)c2)nc1Nc1ccc2oc(=O)[nH]c2c1", "note": "[Compound I-189, 5-[2-(3-Bromo-5-trifluoromethyl-phenylamino)-5-methyl-pyrimidin-4-ylamino]-3H-benzooxazol-2-one]", "IC50": "< 500"}
    ]},
    {"tested_on": "human primary T-cells, IL-2 stimulated proliferation (JAK-1 and JAK-3 dependent; reported as JAK3 activity)", "assay": "Human primary T-cell proliferation stimulated by IL-2 (Example 3)", "format": "cell-based", "details": "tested under conditions described in Example 3 (IL-2 stimulated human primary T-cell proliferation); read-out: ability to inhibit JAK3 activity, IC50 range (Table V)", "method_in_brief": "as §1", "units": {"IC50": "nM"}, "values": [
      {"smiles": "CNC(=O)COc1cccc(Nc2ncc(C)c(Nc3ccc4oc(=O)[nH]c4c3)n2)c1", "note": "[Compound I-306, 5-methyl-N2-(3-methylaminocarbonylmethoxy)phenyl-N4-(2-oxo-2,3-dihydro-1,3-benzoxazol-5-yl)-2,4-pyrimidinediamine]", "IC50": "< 500"},
      {"smiles": "Cc1cnc(Nc2ccc(C(=O)N3CCN(C)CC3)cc2)nc1Nc1ccc2oc(=O)[nH]c2c1", "note": "[Compound I-322, 5-methyl-N2-[4-(4-methylpiperazin-1-yl)carbonyl]phenyl-N4-(2-oxo-2,3-dihydro-1,3-benzoxazol-5-yl)-2,4-pyrimidinediamine]", "IC50": "< 500"},
      {"smiles": "Cc1cnc(Nc2ccc(N3CCN(C)CC3)nc2)nc1Nc1ccc2c(c1)n(C)c(=O)n2C", "note": "[II-20, N4-(1,3-dimethylbenzimidazolin-2-on-5-yl)-N2-[2-(4-methylpiperazino)pyridin-5-yl]-5-methylpyrimidine-2,4-diamine]", "IC50": "< 500"},
      {"smiles": "Cc1cnc(Nc2cccc(S(=O)(=O)NC(C)C)c2)nc1Nc1ccc2oc(=O)[nH]c2c1", "note": "[Compound I-114, N4-(benzoxazolin-2-on-5-yl)-N2-[3-N-(i-propyl)aminosulfonylphenyl]-5-methylpyrimidine-2,4-diamine]", "IC50": "< 500"},
      {"smiles": "Cc1cnc(Nc2cnc(N3CCN4CCC[C@H]4C3)c(F)c2)nc1Nc1ccc2oc(=O)[nH]c2c1", "note": "[II-112, N4-(benzo[d]oxazolin-2(3H)-one-5-yl)-N2-{2-[(8S)-1,4-diazabicyclo[4.3.0]nonane-1-yl]-3-fluoropyridine-5-yl}-5-methyl-2,4-pyrimidinediamine]", "IC50": "< 500"},
      {"smiles": "Cc1cc(Nc2ncc(C)c(Nc3ccc4oc(=O)[nH]c4c3)n2)cc(C(F)(F)F)c1", "note": "[Compound I-479, 5-methyl-N2-(3-methyl-5-trifluoromethyl)phenyl-N4-(2-oxo-2,3-dihydro-1,3-benzoxazol-5-yl)-2,4-pyrimidinediamine]", "IC50": "< 500"},
      {"smiles": "Cc1cnc(Nc2ccc(F)c(OC(C)(C)C#N)c2)nc1Nc1ccc2oc(=O)[nH]c2c1", "note": "[Compound I-417, N2-[3-(1-cyano-1-methyl)ethoxy-4-fluoro]phenyl-5-methyl-N4-(2-oxo-2,3-dihydro-1,3-benzoxazol-5-yl)-2,4-pyrimidinediamine]", "IC50": "< 500"},
      {"smiles": "Cc1cnc(Nc2cccc(-c3cnco3)c2)nc1Nc1ccc2oc(=O)[nH]c2c1", "note": "[Compound I-286, 5-methyl-N2-[3-(1,3-oxazol-5-yl)]phenyl-N4-(2-oxo-2,3-dihydro-1,3-benzoxazol-5-yl)-2,4-pyrimidinediamine]", "IC50": "< 500"},
      {"smiles": "Cc1cnc(Nc2ccc(N3CCC(NC(=O)C(C)(C)C)C3)nc2)nc1Nc1ccc2oc(=O)[nH]c2c1", "note": "(centres unmarked) [II-102, N-(1-(5-(5-methyl-4-(2-oxo-2,3-dihydrobenzo[c]oxazol-5-ylamino)pyrimidin-2-ylamino)pyridin-2-yl)pyrrolidin-3-yl)pivalamide]", "IC50": "< 500"},
      {"smiles": "CN(c1ccc(Nc2ncc(F)c(Nc3ccc4oc(=O)[nH]c4c3)n2)cc1)S(C)(=O)=O", "note": "[Compound I-96, N2-((4-methylsulfonyl-N-methylamino)phenyl)-N4-(2-oxo-2,3-dihydrobenzo[d]oxazol-5-yl)-5-fluoropyrimidine-2,4-diamine]", "IC50": "< 500"},
      {"smiles": "Cn1c(=O)oc2cc(Nc3nc(Nc4cccc(S(N)(=O)=O)c4)ncc3F)ccc21", "note": "[Compound I-57, N2-((3-aminosulfonyl)phenyl)-N4-(3-methyl-2-oxo-2,3-dihydrobenzo[d]oxazol-6-yl)-5-fluoropyrimidine-2,4-diamine]", "IC50": "< 500"}
    ]}
  ]
}
